Among the data in patent US8471005B2 (Cephalon, Inc., priority 2008, dated 2013) are IC50 values, retold here.

Read-outs that look alike come from different tables or passages of the source. Where only a bound is given, the exact number is not on record here.

In assay [1] the target is T1, ALK (Homo sapiens, UniProt Q9UM73).
T1 construct: host or cells: baculovirus expression system
The experiment in a line: ALK Kinase Assay (ELISA/TRF, PLC-γ substrate). The class given is biochemical. Conditions: read-out: ALK Potency. The method, boiled down:
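First, plates are coated with substrate (phospholipase C-γ, 10 μg/mL, TBS). Next, 30 ng/ml ALK initiates phosphorylation for 15 min at 37° C. Then Eu-N1 PT66 antibody is added for detection, and a nonlinear dose-response fit of percent inhibition yields IC50.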

For assay [2], the target named is T2, JAK2 (Homo sapiens, UniProt O60674).
T2 construct: host or cells: baculovirus expression system
Briefly: Recombinant Human JAK2 Kinase Assay (TRF). Conditions: read-out: JAK2 Potency. The class given is biochemical. Summed up:
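Baculovirus-expressed JAK2 (15 ng/ml) phosphorylated a biotinylated 15-mer peptide captured on Neutravidin-coated plates, in 20 mM HEPES pH 7.2 with 0.2 μM ATP, 1 mM MnCl2, 0.1% BSA and 2.5% DMSO. Reaction ran 20 min at room temperature; phosphopeptide was detected by time-resolved fluorescence with Eu-N1-labelled PY100 antibody.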

[3] abbreviates: ALK kinase inhibition, 1 μM ATP.
Where [4] appears, read: JAK2 kinase inhibition, 0.2 μM ATP.

T2 sequence (O60674 whole entry): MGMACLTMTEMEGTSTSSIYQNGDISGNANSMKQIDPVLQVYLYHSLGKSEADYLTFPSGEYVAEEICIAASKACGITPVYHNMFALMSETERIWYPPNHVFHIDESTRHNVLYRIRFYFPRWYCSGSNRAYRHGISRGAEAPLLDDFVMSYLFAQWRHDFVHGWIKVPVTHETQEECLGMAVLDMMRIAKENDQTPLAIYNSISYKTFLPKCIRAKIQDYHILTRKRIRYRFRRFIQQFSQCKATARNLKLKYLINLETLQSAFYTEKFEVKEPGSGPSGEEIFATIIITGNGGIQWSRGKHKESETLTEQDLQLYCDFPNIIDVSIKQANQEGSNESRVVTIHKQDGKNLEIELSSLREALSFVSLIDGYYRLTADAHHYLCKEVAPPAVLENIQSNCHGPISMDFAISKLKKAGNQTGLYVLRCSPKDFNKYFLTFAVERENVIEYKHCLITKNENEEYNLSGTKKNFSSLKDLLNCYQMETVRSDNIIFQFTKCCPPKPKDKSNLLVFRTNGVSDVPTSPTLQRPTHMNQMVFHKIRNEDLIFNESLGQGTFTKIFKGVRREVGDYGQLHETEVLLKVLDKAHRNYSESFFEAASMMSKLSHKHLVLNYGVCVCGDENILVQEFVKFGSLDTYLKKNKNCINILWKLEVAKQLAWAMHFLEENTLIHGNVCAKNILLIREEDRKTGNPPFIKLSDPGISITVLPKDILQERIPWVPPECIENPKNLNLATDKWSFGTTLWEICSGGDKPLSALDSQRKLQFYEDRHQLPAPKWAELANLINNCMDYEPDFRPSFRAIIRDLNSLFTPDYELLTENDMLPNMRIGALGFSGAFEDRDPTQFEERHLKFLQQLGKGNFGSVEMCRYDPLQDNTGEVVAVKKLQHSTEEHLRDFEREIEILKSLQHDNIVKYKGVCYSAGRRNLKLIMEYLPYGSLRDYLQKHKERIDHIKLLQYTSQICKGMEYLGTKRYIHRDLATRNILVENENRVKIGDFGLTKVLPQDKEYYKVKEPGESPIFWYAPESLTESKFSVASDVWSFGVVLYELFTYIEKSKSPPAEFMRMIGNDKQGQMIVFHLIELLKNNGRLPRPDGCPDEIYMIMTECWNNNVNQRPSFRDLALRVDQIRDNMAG
T1 sequence (Q9UM73 19-1620): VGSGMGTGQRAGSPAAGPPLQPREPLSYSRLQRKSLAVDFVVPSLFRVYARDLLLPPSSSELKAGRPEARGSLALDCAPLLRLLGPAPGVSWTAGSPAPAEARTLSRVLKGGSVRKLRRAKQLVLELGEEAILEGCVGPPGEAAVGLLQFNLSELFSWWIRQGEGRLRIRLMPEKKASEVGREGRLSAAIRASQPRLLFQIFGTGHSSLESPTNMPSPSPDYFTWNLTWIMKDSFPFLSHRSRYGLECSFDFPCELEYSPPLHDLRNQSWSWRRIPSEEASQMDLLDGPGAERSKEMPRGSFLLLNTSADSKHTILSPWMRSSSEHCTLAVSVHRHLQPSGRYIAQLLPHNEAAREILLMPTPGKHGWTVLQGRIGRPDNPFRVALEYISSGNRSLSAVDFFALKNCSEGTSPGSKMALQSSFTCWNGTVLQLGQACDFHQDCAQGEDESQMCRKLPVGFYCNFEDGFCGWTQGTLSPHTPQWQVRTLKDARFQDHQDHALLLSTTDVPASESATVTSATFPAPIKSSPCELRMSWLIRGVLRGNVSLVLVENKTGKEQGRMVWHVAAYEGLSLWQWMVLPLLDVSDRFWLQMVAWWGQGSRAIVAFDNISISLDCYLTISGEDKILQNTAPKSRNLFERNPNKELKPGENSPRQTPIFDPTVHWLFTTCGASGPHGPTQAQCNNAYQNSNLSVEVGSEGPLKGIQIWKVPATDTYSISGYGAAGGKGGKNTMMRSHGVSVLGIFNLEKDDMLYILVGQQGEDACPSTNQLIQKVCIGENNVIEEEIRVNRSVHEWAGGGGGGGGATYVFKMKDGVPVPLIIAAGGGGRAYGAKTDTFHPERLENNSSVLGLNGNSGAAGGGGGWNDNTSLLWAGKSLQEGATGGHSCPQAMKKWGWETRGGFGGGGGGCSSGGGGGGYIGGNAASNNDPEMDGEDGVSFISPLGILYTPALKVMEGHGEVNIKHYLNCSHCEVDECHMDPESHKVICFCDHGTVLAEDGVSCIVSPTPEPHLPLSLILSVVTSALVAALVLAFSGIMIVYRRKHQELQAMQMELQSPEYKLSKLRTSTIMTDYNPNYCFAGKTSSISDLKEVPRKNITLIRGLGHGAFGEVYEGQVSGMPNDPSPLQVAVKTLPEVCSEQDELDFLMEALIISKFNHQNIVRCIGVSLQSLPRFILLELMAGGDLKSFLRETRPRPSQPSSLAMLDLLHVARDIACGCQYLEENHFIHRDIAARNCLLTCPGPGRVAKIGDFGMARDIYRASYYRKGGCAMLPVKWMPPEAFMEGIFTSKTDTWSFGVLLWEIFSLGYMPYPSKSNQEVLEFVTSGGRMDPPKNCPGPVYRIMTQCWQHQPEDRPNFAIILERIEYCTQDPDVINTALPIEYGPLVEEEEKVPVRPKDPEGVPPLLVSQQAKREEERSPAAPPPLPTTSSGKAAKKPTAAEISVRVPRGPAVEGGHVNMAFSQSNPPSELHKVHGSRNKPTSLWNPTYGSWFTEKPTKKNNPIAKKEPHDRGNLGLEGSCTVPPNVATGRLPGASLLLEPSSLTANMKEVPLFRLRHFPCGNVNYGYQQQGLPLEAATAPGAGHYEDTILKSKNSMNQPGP

In the case of `c1ccc2c(c1)cc1cnc(Nc3ccc(N4CCOCC4)cc3)nn12` [Example 261, (4-Morpholin-4-yl-phenyl)-[1,2,4]triazino[1,6-a]indol-2-yl-amine], the IC50 in assay [1] (ALK Kinase Inhibition) is 0.1 to 1 µM; in assay [2] (JAK2 Kinase Inhibition) it was under 0.1 µM.
On to `CS(=O)(=O)c1ccc(-c2ccc3cnc(Nc4ccc(-c5cccnc5)cc4)nn23)cc1` [Example 1089, [7-(4-Methanesulfonyl-phenyl)-pyrrolo[2,1-f][1,2,4]triazin-2-yl]-(4-pyridin-3-yl-phenyl)-amine], for which the IC50 in assay [1] (setting [3]) was 1 to 10 µM; in assay [2] (setting [4]), under 0.1 µM.
As for `CN1C(=O)Cc2cc(Nc3ncc4ccc(-c5ccc(S(C)(=O)=O)cc5)n4n3)ccc21` [Example 373, 5-[7-(4-Methanesulfonyl-phenyl)-pyrrolo[2,1-f][1,2,4]triazin-2-ylamino]-1-methyl-1,3-dihydro-indol-2-one], the IC50 in assay [1] (ALK Kinase Inhibition) is 1 to 10 µM; in assay [2] (JAK2 Kinase Inhibition), under 0.1 µM.
As for `CS(=O)(=O)c1ccc(-c2ccc3cnc(Nc4ccc5c(c4)NC(=O)C(NC(=O)C(F)(F)F)CC5)nn23)cc1` (stereo not drawn) [Example 1174, 2,2,2-Trifluoro-N-{8-[7-(4-methanesulfonyl-phenyl)-pyrrolo[2,1-f][1,2,4]triazin-2-ylamino]-2-oxo-2,3,4,5-tetrahydro-1H-benzo[b]azepin-3-yl}-acetamide], the IC50 is over 10 µM in assay [1] (setting [3]) and under 0.1 µM in assay [2] (setting [4]).
For the molecule `COc1ccccc1-c1ccc2cnc(Nc3ccc(C4CCNC4)cc3)nn12` (stereo not drawn) [Example 1012, [7-(2-Methoxy-phenyl)-pyrrolo[2,1-f][1,2,4]triazin-2-yl]-(4-pyrrolidin-3-yl-phenyl)-amine], the IC50 in assay [1] (setting [3]) and in assay [2] (setting [4]) was under 0.1 µM throughout.
As to `Cn1ncc2cc(Nc3ncc4ccc(-c5cccc(S(=O)(=O)CC6CC6)c5)n4n3)ccc21` [Example 1322, [7-(3-Cyclopropylmethanesulfonyl-phenyl)-pyrrolo[2,1-f][1,2,4]triazin-2-yl]-(1-methyl-1H-indazol-5-yl)-amine], the values for the IC50 in assay [1] (setting [3]) and in assay [2] (setting [4]) were 1 to 10 µM and under 0.1 µM, respectively.
Take `FC1(F)Oc2cccc(-c3ccc4cnc(Nc5ccc6[nH]c(CN7CCOCC7)nc6c5)nn34)c2O1` [Example 1536, [7-(2,2-Difluoro-benzo[1,3]dioxol-4-yl)-pyrrolo[2,1-f][1,2,4]triazin-2-yl]-(2-morpholin-4-ylmethyl-1H-benzoimidazol-5-yl)-amine]: the IC50 in assay [1] (ALK Kinase Inhibition) was 0.1 to 1 µM; in assay [2] (JAK2 Kinase Inhibition), under 0.1 µM.
As to `COc1ccccc1-c1ccc2cnc(Nc3ccc4nc(CN5CCN(C)CC5)[nH]c4c3)nn12` [Example 1526, [7-(2-Methoxy-phenyl)-pyrrolo[2,1-f][1,2,4]triazin-2-yl]-[2-(4-methyl-piperazin-1-ylmethyl)-3H-benzimidazol-5-yl]-amine], the figures for the IC50 in assay [1] (ALK Kinase Inhibition) and in assay [2] (JAK2 Kinase Inhibition) were 0.1 to 1 µM and under 0.1 µM, respectively.
Consider `CN1CCN(CCn2cc(Nc3ncc4ccc(-c5cnn(C)c5)n4n3)cn2)CC1` [Example 1213, {1-[2-(4-Methyl-piperazin-1-yl)-ethyl]-1H-pyrazol-4-yl}-[7-(1-methyl-1H-pyrazol-4-yl)-pyrrolo[2,1-f][1,2,4]triazin-2-yl]-amine], for which the IC50 in assay [1] (setting [3]) was 0.1 to 1 µM; in assay [2] (setting [4]), under 0.1 µM.
The corresponding values for `COc1ccncc1-c1ccc2cnc(Nc3ccc(N4CCOCC4)cc3)nn12` [Example 1211, [7-(4-Methoxy-pyridin-3-yl)-pyrrolo[2,1-f][1,2,4]triazin-2-yl]-(4-morpholin-4-yl-phenyl)-amine] are 1 to 10 µM and under 0.1 µM.
As for `OCCN1CCN(c2cccc(Nc3ncc4ccc(-c5cccc(Cl)c5)n4n3)c2)CC1` [Example 179, 2-(4-{3-[7-(3-Chloro-phenyl)-pyrrolo[2,1-f][1,2,4]triazin-2-ylamino]-phenyl}-piperazin-1-yl)-ethanol], the IC50 in assay [1] (ALK Kinase Inhibition) and in assay [2] (JAK2 Kinase Inhibition) was under 0.1 µM each time.
In the case of `CN(c1ccccc1-c1ccc2cnc(Nc3cncc(C(N)=O)c3)nn12)S(C)(=O)=O` [Example 666, 5-{7-[2-(Methanesulfonyl-methyl-amino)-phenyl]-pyrrolo[2,1-f][1,2,4]triazin-2-ylamino}-nicotinamide], the IC50 in assay [1] (setting [3]) is 1 to 10 µM; in assay [2] (setting [4]), under 0.1 µM.
